Like-named read-outs stand apart in the source and are kept apart here.
Legend:
muscarinic M3 receptor = biological target: T1, muscarinic M3 receptor (Cavia porcellus, UniProt H0W1Z3); assay: Muscarinic M3 antagonistic action in isolated guinea pig trachea (carbachol-induced contraction, Schild method); type: cell-based; settings: compound applied 15 minutes before carbachol
T1 construct: trachea was excised, and cut at every two tracheal cartilages to prepare tissue specimens; from tissue; host or cells: isolated guinea pig trachea (male Hartley)
T1 sequence (H0W1Z3 1-590): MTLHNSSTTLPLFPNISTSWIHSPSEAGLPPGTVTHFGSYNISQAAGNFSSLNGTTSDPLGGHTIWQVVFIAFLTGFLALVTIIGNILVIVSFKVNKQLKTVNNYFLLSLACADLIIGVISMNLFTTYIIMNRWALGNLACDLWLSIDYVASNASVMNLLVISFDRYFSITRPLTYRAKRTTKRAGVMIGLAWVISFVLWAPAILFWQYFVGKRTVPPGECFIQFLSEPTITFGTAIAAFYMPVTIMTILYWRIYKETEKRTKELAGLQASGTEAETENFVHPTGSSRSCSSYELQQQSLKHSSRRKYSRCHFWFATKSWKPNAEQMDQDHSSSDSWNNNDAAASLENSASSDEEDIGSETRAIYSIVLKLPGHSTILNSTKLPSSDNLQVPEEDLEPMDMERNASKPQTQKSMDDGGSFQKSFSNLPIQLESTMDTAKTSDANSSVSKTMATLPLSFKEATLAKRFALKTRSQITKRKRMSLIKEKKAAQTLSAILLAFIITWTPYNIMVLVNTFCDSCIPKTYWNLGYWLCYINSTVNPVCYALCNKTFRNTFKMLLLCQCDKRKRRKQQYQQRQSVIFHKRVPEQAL
Procedure: Muscarinic M3 Antagonistic Action in Isolated Guinea Pig Trachea
Male Hartley guinea pigs (350 to 600 g) were sacrificed by bleeding, and trachea was excised, and cut at every two tracheal cartilages to prepare tissue specimens. Each tissue specimen was kept warm at 37° C., suspended with a resting tension of 1 g in a 5-mL Magnus bath filled with a Krebs carbonate buffer containing indomethacin (1 μM) bubbled with 95% O2/5% CO2, and left for 60 minutes as a stabilization period. […] After the measurement, the tissue specimen was immediately washed, and left for 60 minutes as a stabilization period before the next contraction reaction, and the tissue specimen of which EC50 for the carbachol-induced contraction reaction was stabilized was considered as a control. Each test compound was applied 15 minutes before the addition of carbachol. The affinity (pA2) of the test compound was obtained by the Schild method (Arunlakshana, O. and Schild, H. O., Brit. J. Pharmacol., 1959, 14, 48-58).

[1] = test system: Bronchoconstriction in Guinea Pigs (induced with acetylcholine); assay: Effect on bronchoconstriction in guinea pigs (via inhalation administration), Konzett method; type: in vivo; settings: guinea pig, intratracheal administration 10 μL g/head, 24 hours after administration, acetylcholine 4 μg/kg i.v., versus control group; for inhibition in vivo at 0.01 mg: Cavia porcellus, iv, read-out: Percent of inhibition of bronchoconstriction (%)
Procedure: Effect on Bronchoconstriction in Guinea Pigs (Via Inhalation Administration)
The test was performed according to the method of Konzett et al. (Arch. Exp. Path Pharmak., 1940, 195, 71-74). Male Hartley guinea pigs (350 to 600 g) were anesthetized with urethane (1.8 g/kg, i.p.), and then a cannula for drug administration was inserted into each left jugular vein. After the immobilization with decamethonium (2 mg/kg, i.v.), a tracheal cannula was inserted, and controlled respiration was attained by a respirator (Harvard). Bronchoconstriction was measured as changes of airway pressure with a pressure transducer (Nihon Kohden Corp.). Each test compound was administered (10 μL g/head) from dissected trachea by using a device for intratracheal administration of liquid for guinea pigs (Penn Century), and after suture, the animals were returned to usual breeding. After 24 hours, acetylcholine (4 μg/kg, i.v.) was administered to induce bronchoconstriction, and inhibitory activity on bronchoconstriction was calculated as percent inhibition comparing to the change of airway pressure in control group was obtained.

muscarinic M2 receptor = biological target: T2, muscarinic M2 receptor (Cavia porcellus, UniProt H0VRN8); assay: Muscarinic M2 antagonistic action in isolated guinea pig left atrium (carbachol-induced relaxation, Schild method); type: cell-based; settings: compound applied 30 minutes before carbachol
T2 construct: left atria were excised to prepare tissue specimens; from tissue; host or cells: isolated guinea pig left atrium (male Hartley)
T2 sequence (H0VRN8 1-466): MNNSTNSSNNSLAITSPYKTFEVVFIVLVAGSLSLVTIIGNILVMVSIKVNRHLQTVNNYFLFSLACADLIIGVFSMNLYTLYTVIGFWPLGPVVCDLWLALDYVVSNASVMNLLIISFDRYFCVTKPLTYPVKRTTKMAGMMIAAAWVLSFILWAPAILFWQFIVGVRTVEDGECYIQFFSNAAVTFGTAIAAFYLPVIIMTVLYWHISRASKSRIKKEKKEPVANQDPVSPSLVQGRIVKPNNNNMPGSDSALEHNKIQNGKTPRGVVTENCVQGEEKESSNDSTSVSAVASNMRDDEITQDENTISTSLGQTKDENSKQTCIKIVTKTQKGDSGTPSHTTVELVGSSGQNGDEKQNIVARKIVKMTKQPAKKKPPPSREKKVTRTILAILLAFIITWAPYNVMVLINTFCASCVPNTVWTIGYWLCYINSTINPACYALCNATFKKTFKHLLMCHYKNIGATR
Procedure: Muscarinic M2 Antagonistic Action in Isolated Guinea Pig Left Atrium […] Each tissue specimen was kept warm at 37° C., suspended with a resting tension of 0.5 g in a 5-mL Magnus bath filled with a Krebs carbonate buffer bubbled with 95% O2/5% CO2. Then, contraction evoked by field electrical stimulation (4 Hz, 2 msec, 1.5×threshold potential) was measured. After a stabilization period of 60 minutes, carbachol-induced relaxation was isometrically measured and recorded by the cumulative method from 10^−8 M with an interval of 90 seconds for one concentration in an equal ratio of 3. After the measurement, the tissue specimen was immediately washed, and left for 45 minutes as a stabilization period before the next observation. The tissue specimen of which EC50 for the carbachol-induced relaxation was stabilized was considered as a control. Each test compound was applied 30 minutes before the addition of carbachol. The affinity (pA2) of the test compound was obtained in the same manner as in the case of the trachea.

[2] = isolated guinea pig left atrium
[3] = pA2 Trachea M3, isolated guinea pig trachea
[4] = pA2 Left atrium M2, isolated guinea pig left atrium
[5] = isolated guinea pig trachea, read-out: pA2 Trachea M3 (converted)
[6] = isolated guinea pig left atrium, read-out: pA2 Left atrium M2 (converted)

SMILES	Kb (muscarinic M3 receptor; [3]) [nM]	inhibition in vivo at 0.01 mg [1] [%]	Kb (muscarinic M2 receptor; [4]) [nM]	other results
Cc1n(Cc2ccc(F)cc2)cc[n+]1[C@H]1CC[C@@H](C(C(N)=O)(c2ccccc2)c2ccccc2)C1.[Br-] (relative stereo) [Example 7, 3-(cis-3-(Carbamoyl(diphenyl)methyl)cyclopentyl)-1-(4-fluoro-benzyl)-2-methyl-1-3H-imidazol-1-ium bromide]				pA2 Trachea M3 (muscarinic M3 receptor; isolated guinea pig trachea): 9.6; Percent of inhibition of bronchoconstriction (%) [1]: 90%; pA2 Left atrium M2 (muscarinic M2 receptor; [2]): 8.5
Cc1cccc(C[n+]2ccn([C@H]3CC[C@@H](C(C(N)=O)(c4ccccc4)c4ccccc4)C3)c2C)c1 (relative stereo) [Example 8, 3-(cis-3-(Carbamoyl(diphenyl)methyl)cyclopentyl)-2-methyl-1-(3-methyl-benzyl)-3H-imidazol-1-ium bromide]	0.316	90	10	
Cc1n(CC2CO2)cc[n+]1[C@H]1CC[C@@H](C(C(N)=O)(c2ccccc2)c2ccccc2)C1.[Br-] (relative stereo) [Example 22]				pA2 Trachea M3 (muscarinic M3 receptor; isolated guinea pig trachea): 9; Percent of inhibition of bronchoconstriction (%) [1]: 80%; pA2 Left atrium M2 (muscarinic M2 receptor; [2]): 7.7
COCC[n+]1ccn([C@H]2CC[C@@H](C(C(N)=O)(c3ccccc3)c3ccccc3)C2)c1C (relative stereo) [Example 26, 3-(cis-3-(Carbamoyl(diphenyl)methyl)cyclopentyl)-1-(2-methoxy-ethyl)-2-methyl-3H-imidazol-1-ium bromide]	0.2	70	12.6	
Cc1n([C@H]2CC[C@@H](C(C(N)=O)(c3ccccc3)c3ccccc3)C2)cc[n+]1CC1CC1 (relative stereo) [Example 30, 3-(cis-3-(Carbamoyl(diphenyl)methyl)cyclopentyl)-1-cyclopropylmethyl-2-methyl-3H-imidazol-1-ium bromide]		80		
Cc1n([C@H]2CC[C@@H](C(C(N)=O)(c3ccccc3)c3ccccc3)C2)cc[n+]1CC[C@H]1CO1.[Br-] (relative stereo) [Example 36, 3-(cis-3-(Carbamoyl(diphenyl)methyl)cyclopentyl)-2-methyl-1-(2-(S)-oxiranyl-ethyl)-3H-imidazo-1-ium bromide]				pA2 Trachea M3 (muscarinic M3 receptor; isolated guinea pig trachea): 9; Percent of inhibition of bronchoconstriction (%) [1]: 90%; pA2 Left atrium M2 (muscarinic M2 receptor; [2]): 7.7
Cc1n([C@H]2CC[C@@H](C(C(N)=O)(c3ccccc3)c3ccccc3)C2)cc[n+]1C(F)F (relative stereo) [Example 37, 3-(cis-3-(Carbamoyl(diphenyl)methyl)cyclopentyl)-1-difluoromethyl-2-methyl-3H-imidazol-1-ium bromide]	0.794	80		
Cc1n([C@H]2CC[C@@H](C(C(N)=O)(c3ccccc3)c3ccccc3)C2)cc[n+]1CC1CCC1 (relative stereo) [Example 40, 3-(cis-3-(Carbamoyl(diphenyl)methyl)cyclopentyl)-1-cyclobutylmethyl-2-methyl-3H-imidazol-1-ium bromide]	0.398	100	7.94	
CC1=[N+](C)CCN1[C@H]1CC[C@@H](C(C(N)=O)(c2ccccc2)c2ccccc2)C1 (relative stereo) [Example 56, 3-(cis-3-(Carbamoyl(diphenyl)methyl)cyclopentyl)-1,2-dimethyl-4,5-dihydro-3H-imidazol-1-ium iodide]	2.51	100	31.6	
C[n+]1ccn([C@H]2CC[C@H](C(C(N)=O)(c3ccccc3)c3ccccc3)C2)c1 (relative stereo) [Example 59, 3-(trans-3-(Carbamoyl(diphenyl)methyl)cyclopentyl)-1-methyl-3H-imidazol-1-ium iodide]	0.794	90	20	
Cc1nccn1[C@@H]1CC[C@H](C(C(N)=O)(c2ccccc2)c2ccccc2)C1 (relative stereo) [Reference Example 5, 2-(cis-3-(2-Methylimidazol-1-yl)cyclopentyl)-2,2-diphenylacetamide, reference compound]		0		Kb (muscarinic M3 receptor; [5]): 0.794 nM; Kb (muscarinic M2 receptor; [6]): 50.1 nM
CC1=NCCN1[C@@H]1CC[C@H](C(C(N)=O)(c2ccccc2)c2ccccc2)C1 (relative stereo) [Reference Example 13, 2-(cis-3-(2-Methyl-4,5-dihydroimidazol-1-yl)cyclopentyl)-2,2-diphenylacetamide, reference compound]		20		Kb (muscarinic M3 receptor; [5]): 5.01 nM; Kb (muscarinic M2 receptor; [6]): 79.4 nM
CC1=[N+](C)CCN1[C@@H]1CC[C@H](C(C(N)=O)(c2ccccc2)c2ccccc2)C1 [Example 60, 3-((1R,3S)-3-(Carbamoyl(diphenyl)methyl)cyclopentyl)-1,2-dimethyl-4,5-dihydro-3H-imidazol-1-ium para-toluenesulfonate]		90		Kb (muscarinic M3 receptor; [5]): 0.631 nM; Kb (muscarinic M2 receptor; [6]): 15.8 nM
Cc1n([C@H]2CC[C@@H](C(C(N)=O)(c3ccccc3)c3ccccc3)C2)cc[n+]1CCC(C)C [Example 79, 3-((1S,3R)-3-(Carbamoyl(diphenyl)methyl)cyclopentyl)-2-methyl-1-(3-methyl-butyl)-3H-imidazol-1-ium bromide]	0.631		63.1	
CC#CC[n+]1ccn([C@H]2CC[C@@H](C(C(N)=O)(c3ccccc3)c3ccccc3)C2)c1C [Example 82]	0.794		63.1	
Cc1n([C@H]2CC[C@@H](C(C(N)=O)(c3ccccc3)c3ccccc3)C2)cc[n+]1CCO.[Br-] [Example 84, 3-((1S,3R)-3-(Carbamoyl(diphenyl)methyl)cyclopentyl)-1-hydroxyethyl-2-methyl-3H-imidazol-1-ium bromide]				pA2 Trachea M3 (muscarinic M3 receptor; isolated guinea pig trachea): 8.2; pA2 Left atrium M2 (muscarinic M2 receptor; [2]): 6.3
Cc1n([C@H]2CC[C@@H](C(C(N)=O)(c3ccccc3)c3ccccc3)C2)cc[n+]1Cc1ccc(F)cc1 [Example 85, 3-((1S,3R)-3-(Carbamoyl(diphenyl)methyl)cyclopentyl)-1-(4-fluorobenzyl)-2-methyl-3H-imidazol-1-ium bromide]	0.794		31.6	
Cc1n([C@@H]2CC[C@H](C(C(N)=O)(c3ccccc3)c3ccccc3)C2)cc[n+]1C(F)F [Example 92, 3-((1R,3S)-3-(Carbamoyl(diphenyl)methyl)cyclopentyl)-1-difluoromethyl-2-methyl-3H-imidazol-1-ium bromide]	0.398		12.6	
Cc1n([C@H]2CC[C@@H](C(C(N)=O)(c3ccccc3)c3ccccc3)C2)cc[n+]1C [Example 94, 3-((1S,3R)-3-(Carbamoyl(diphenyl)methyl)cyclopentyl)-1,2-dimethyl-3H-imidazol-1-ium para-toluenesulfonate]				Kb (muscarinic M3 receptor; [5]): 0.794 nM; Kb (muscarinic M2 receptor; [6]): 100 nM
CC(C)[N+]1(C)[C@@H]2CC[C@H]1C[C@@H](OC(=O)C(CO)c1ccccc1)C2 (some centres unmarked) [Ipratropium, reference compound]	1		3.98	

— patent publication US20100152261A1 (MITSUBISHI TANABE PHARMA CORPORATION, priority 2005, published 2010)
